Literature values as cited in patent US20130344180A1, “WEIGHT LOSS AND SATIATION COMPOSITION” (YL HOLDINGS, INC., priority 2012, published 2013).

What was measured:
cellular metabolism = conditions: by increasing cellular metabolism
[1] = mice and rats
prostate gland tumors = conditions: various strains of rats
[2] = test system: E1, E2, and E3 isozymes of retinaldehyde dehydrogenase (Raldh)
[3] = mice and rats; remark: listed apart in the source
[4] = test system: adipocyte differentiation
PPARγ = PPARγ (Homo sapiens, UniProt P37231)
[5] = in vivo
[6] = test system: fat cells in white adipose tissue; conditions: by increasing the expression of thermogenin

PPARγ, sequence (P37231 whole entry, species assumed): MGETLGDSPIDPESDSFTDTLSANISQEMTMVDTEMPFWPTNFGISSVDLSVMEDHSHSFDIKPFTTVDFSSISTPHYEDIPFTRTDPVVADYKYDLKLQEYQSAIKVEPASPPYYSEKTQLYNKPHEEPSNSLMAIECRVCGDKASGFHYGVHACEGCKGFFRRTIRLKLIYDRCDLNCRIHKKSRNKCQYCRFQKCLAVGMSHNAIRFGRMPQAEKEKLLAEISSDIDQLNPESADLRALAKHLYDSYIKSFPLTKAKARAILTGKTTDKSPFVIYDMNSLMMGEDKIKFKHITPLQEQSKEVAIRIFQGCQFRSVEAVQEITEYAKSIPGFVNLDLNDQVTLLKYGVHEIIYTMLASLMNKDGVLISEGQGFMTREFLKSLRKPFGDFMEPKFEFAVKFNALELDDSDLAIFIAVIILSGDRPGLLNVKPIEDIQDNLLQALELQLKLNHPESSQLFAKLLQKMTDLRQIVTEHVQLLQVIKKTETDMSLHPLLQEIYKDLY

## CC(C)=CCCC(C)=CC=O [Citral, 3,7-dimethyl-2,6-octadienal]
Cellular metabolism
  thermogenic response: provide thermogenic response
[1]
  carcinogenic potential: does not possess carcinogenic potential
Prostate gland tumors
  effect against prostate gland tumors: effective
[2]
  inhibition of E1, E2, and E3 isozymes of retinaldehyde dehydrogenase (Raldh): competitively inhibits
[3]
  toxicity: non-toxic

## CCCC\C=C/C=C/C=C\CCCCCCCC(=O)O [punicic acid]
[4]
  adipocyte differentiation: suppression
PPARγ
  ligand of PPARγ: acts as a ligand
[5]
  high-fat-diet induced obesity and insulin resistance: suppression

## Fucoxanthin
[6]
  fat burning within fat cells: promote fat burning
